# Reference: PubChem BioAssay AID1963597 (National Center for Advancing Translational Sciences (NCATS), 2024)
# System: human liver microsomes, metabolic stability half-life
# Assay: NCATS Human Liver Microsomal (HLM) Stability Profiling
# Conditions: higher = more stable; screened at 1 µM (by protocol)
# Summary of the method: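 Half-life derived from parent loss over 0–60 min (0, 5, 10, 15, 30, 60 min) at 37 °C. Incubations: 0.5 mg/mL microsomes, 1 µM test article, NADPH regeneration, pH 7.4 phosphate; quenched in acetonitrile containing albendazole, analysed by MS.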
row,SMILES,half-life [min]
1,c1ccc2c(c1)CCC[C@H]2C1=NCCN1,> 120
2,CCCCN(CCCC)C(=O)CN1C[C@H](c2ccc3c(c2)OCO3)[C@@H](C(=O)O)[C@@H]1c1ccc(OC)cc1,72.6
3,Cc1cc(Nc2nc(N[C@@H](C)c3ccc(F)cc3)c(C#N)cc2F)n[nH]1,> 120
4,c1ccc(-c2csc(N3CCOCC3)n2)cc1,3.95
5,COc1ccccc1Cn1cc(C(=O)c2ccc(Cl)cc2)c(=O)c2cc3c(cc21)OCCO3,40.8
6,CNCCCC12CCC(c3ccccc31)c1ccccc12,> 120
7,CC(C)(N)Cc1ccccc1Cl,> 120
8,N#Cc1cccc(C(=O)Nc2ccc3ncnc(N4CCCCC4)c3c2)c1,12.4
9,CCN[C@H]1C[C@H](C)S(=O)(=O)C2SC(S(N)(=O)=O)C=C21 (some centres undefined),105
10,CC1=C(C(=O)Nc2cc3cn[nH]c3cc2F)C(c2ccc(Cl)cc2F)N=C(c2ccnc(Cl)c2)N1 (centres undefined),14.2
11,CCOc1ccccc1NC(=O)CSc1nc2ccccc2c2nc(CCn3cncc3C)nn12,5.36
12,CC1(C)OC[C@H](NC(=O)Nc2ccc(Br)cc2Br)[C@H](c2ccccc2)O1,1
13,O=C(Nc1cccc(-c2nc3cc(Cl)ccc3o2)c1)c1ccccc1,5.41
14,COc1cc(Nc2nc3c(s2)CCCC3c2ccccc2)ccc1-n1cnc(C)c1 (centres undefined),31
15,CC(C)(C)C(=O)OCOP(=O)(COCCn1cnc2c(N)ncnc21)OCOC(=O)C(C)(C)C,3.13
16,COc1cc(Nc2nc3ccccc3nc2NS(=O)(=O)c2cccc(NC(=O)c3ccc(C)c(OC)c3)c2)cc(OC)c1,14
17,C[C@@]1(c2cc(-c3cncnc3)c(F)cc2F)CCSC(N)=N1,> 120
18,CCCC(C)(COC(N)=O)COC(=O)NC(C)C (centres undefined),> 120
19,CC1(C)O[C@H]2CC(=O)OC[C@]23[C@H]2CC[C@@]4(C)[C@H](c5ccoc5)OC(=O)[C@H]5O[C@]54[C@]2(C)C(=O)C[C@@H]13,13.4
20,O=[N+]([O-])c1cn2c(n1)OC[C@@H](OCc1ccc(OC(F)(F)F)cc1)C2,> 120
21,CCOc1ccc(S(=O)(=O)NCCc2sc(-c3ccc(C)cc3)nc2C)cc1,4.09
22,N#Cc1cccc(C(=O)Nc2cc(-c3ccccc3)nn2-c2ccccc2)c1,18.7
23,C=CCOC1=C(OCC(O)CNC(C)C)CCCC1 (centres undefined),> 120
24,CCOc1cc(=O)n2c(c1C(=O)Nc1ccc(C#N)cc1)CCCC2,> 120
25,Cc1cc(=O)n(-c2ccccc2)n1C,> 120

row,SMILES,half-life [min]
1,C#Cc1cccc(Nc2ncnc3cc(OCCOC)c(OCCO)cc23)c1,> 120
2,Cc1c(Cl)ccc2sc(N3CCN(C(=O)CS(=O)(=O)c4ccccc4)CC3)nc12,61.2
3,CC(=O)c1ccc(O)c(C(N)=O)c1,> 120
4,Cc1ccc(-c2nc3ccc(C)cn3c2CC(=O)N(C)C)cc1,> 120
5,COc1cc(Nc2nc3ccccc3nc2NS(=O)(=O)c2ccc(NC(=O)c3ccc(OC)c(C)c3)cc2)cc(OC)c1,> 120
6,COc1cc(N2CCOCC2)ccc1NC(=O)c1csc(-c2cccnc2)n1,30.2
7,CN1CCN(C(=O)c2cc(-c3cccnc3)nc3c2cnn3C)CC1,> 120
8,O=C(CCc1nnc2n(Cc3ccc(Cl)cc3)c(=O)c3ccccc3n12)NCCC1=CCCCC1,1.05
9,CCC1CCCCN1CC(=O)N1CCCc2c1c(=O)oc1ccc(OCc3ccccc3)cc21 (centres undefined),0.54
10,O=C(O)c1ccc(CN2CC(COc3ccccc3)C3(C2)CN(c2ccccc2)C3)cc1 (centres undefined),64.8
11,CCc1nn(CCCN2CCN(c3cccc(Cl)c3)CC2)c(=O)n1CCOc1ccccc1,0.98
12,O=C1CC[C@H](C(=O)N2CCCCC2)N1,> 120
13,C#C[C@]1(O)CC[C@H]2[C@@H]3CCC4=CC(=O)CCC4=C3C=C[C@@]21CC,38.2
14,CC(Cc1ccc2c(c1)OCO2)NCC(O)c1ccc(O)c(O)c1 (centres undefined),18.6
15,CC(Cc1ccccc1)NCc1ccccc1Cl (centres undefined),10.6
16,CCCOc1cc(N)ccc1C(=O)OCCN(CC)CC,70.3
17,COc1ccc(NC(=O)Cn2cc(C(=O)c3cccs3)c3ccccc32)cc1,16.6
18,COC(=O)c1cc(S(N)(=O)=O)ccc1OC,43.2
19,O=C1CN2CCOC2(c2ccccc2Cl)c2cc(Cl)ccc2N1 (centres undefined),4.56
20,O=C(Nc1ccccc1Br)NC1CCN(c2ccc(C(F)(F)F)cn2)C1 (centres undefined),120
21,CCOP(=S)(OCC)O/N=C(\C#N)c1ccccc1,8.67
22,CC1(C)O[C@@H]2C[C@H]3[C@@H]4CCC5=CC(=O)C=C[C@]5(C)[C@@]4(F)[C@@H](O)C[C@]3(C)[C@]2(C(=O)CO)O1,27.3
23,Cc1ccc(N2CCN(C(=O)C3CCN(c4ncnc5c4nc4n5CCCCC4)CC3)CC2)c(C)c1,> 120
24,COc1ccc2c(c1)CC[C@@H](CN(C)CC(=O)O)[C@H]2c1ccccc1,> 120
